From patent US20170290844A1, “Methods of Treatment” (GlaxoSmithKline Intellectual Property Development Limited, priority 2014, published 2017)

Experiments:
[1] = tested on: COPD bronchial epithelial cells infected with HRV16; experiment: Genome-wide transcriptional analysis by microarray of COPD BECs infected with HRV16; format: cell-based, human; conditions: 72 h HRV16 infection
Text: (§1) Air-liquid interface (ALI) cultured human bronchial epithelial cells (BECs) from chronic obstructive pulmonary disease (COPD) donors were either bought fully differentiated (Epithelix Sarl, Cat. No. EP10MD) or cultured in-house using the Pneumocult method (StemCell Technologies, Cat. No. 05001), in a 24-well format. Primary cells for in-house ALI cultures were obtained from Epithelix Sarl, Cat. No. EP18AB.
(§2) Prior to infection, ALI cells were washed twice in warm PBS (with Ca2^+/Mg2^+). Subsequently, human rhinovirus 16 was applied at multiplicity of infection (MOI) of 1 or 5 in a total volume of 50 μl culture medium. The virus was allowed to attach for 1h at room temperature with gentle agitation. Consequently, the virus was washed off with warm PBS (with Ca2^+/Mg2^+) and cells were further cultured at 37° C. for the indicated amount of time either with or without the addition of a rsecretase inhibitor CompA (S)-2-[2-(3,5-difluorophenyl)-acetylamino]-N—((S)-1-methyl-2-oxo-5-phenyl-2,3-dihydro-1H-benzo[e][1,4]diazepin-3-yl)-propionamide, (Calbiochem Cat. No. 565790).
(§3) Ribonucleic acid (RNA) from ALI cultured COPD BECs was prepared by lysing the cells in RLT buffer supplied with Promega Total RNA Isolation System (Promega, Cat. No. Z3505). RNA was then extracted by using the manufacturer's protocol with automation. Murine total lung RNA was isolated by first homogenisation of the lung in 1 ml TRIZOL™ reagent, then subsequent phase separation with 1-bromo-3-chloropropane (BCP) (MRC, Cat. No. BP151). The aqueous phase was then mixed with 70% ethanol and final RNA extraction was achieved using the Promega Total RNA Isolation System with automation. […] Amplification of specific targets was performed by quantitative real-time polymerase chain reaction (qRT-PCR) using the TaqMan® gene expression system (Applied Biosystems Cat. No. 4369510) and ready to use TaqMan® primer/probes (see Table 1). […]

[2] = tested on: COPD BECs infected with HRV16; experiment: Gene expression by real-time PCR in ALI cultures of COPD BECs infected with HRV16; format: cell-based, human; conditions: 24 h post HRV16 infection
Text: as §1
(§4) Prior to infection, ALI cells were washed twice in warm PBS (with Ca2^+/Mg2^+). Subsequently, human rhinovirus 16 was applied at multiplicity of infection (MOI) of 1 or 5 in a total volume of 50 μl culture medium. The virus was allowed to attach for 1h at room temperature with gentle agitation. […]
Ribonucleic acid (RNA) from ALI cultured COPD BECs was prepared by lysing the cells in RLT buffer supplied with Promega Total RNA Isolation System (Promega, Cat. No. Z3505). […] Amplification of specific targets was performed by quantitative real-time polymerase chain reaction (qRT-PCR) using the TaqMan® gene expression system (Applied Biosystems Cat. No. 4369510) and ready to use TaqMan® primer/probes (see Table 1). […]

[3] = tested on: COPD BECs infected with HRV16; experiment: Mucociliary responses of BECs infected with HRV16 (real-time PCR, AB/PAS staining, β-tubulin IV immunofluorescence); format: cell-based, human
Text: as §1, §2
Ribonucleic acid (RNA) from ALI cultured COPD BECs was prepared by lysing the cells in RLT buffer supplied with Promega Total RNA Isolation System (Promega, Cat. No. Z3505). RNA was then extracted by using the manufacturer's protocol with automation. Murine total lung RNA was isolated by first homogenisation of the lung in 1 ml TRIZOL™ reagent, then subsequent phase separation with 1-bromo-3-chloropropane (BCP) (MRC, Cat. No. BP151). The aqueous phase was then mixed with 70% ethanol and final RNA extraction was achieved using the Promega Total RNA Isolation System with automation. Complementary deoxyribonucleic acid (cDNA) was synthesised by reverse transcription using MultiScribe™ Reverse Transcriptase and random primers according to the manufacturer's protocol (Applied Biosystems, Cat. No. 4368814). Amplification of specific targets was performed by quantitative real-time polymerase chain reaction (qRT-PCR) using the TaqMan® gene expression system (Applied Biosystems Cat. No. 4369510) and ready to use TaqMan® primer/probes (see Table 1). Global gene expression analysis was performed by microarray using the Human Genome U133 Plus 2.0 genechip and was done either by Epistem Ltd. (Manchester, UK) or Expression Analysis, Inc. (Durham, US). Data analysis was performed using Array Studio software (OmicSoft Corporation, Cary, US) with GC-RMA normalisation algorithm. Probes with intensities less than the geometric mean of 64 were discarded. […]
ALI cultured BECs were fixed in 4% paraformaldehyde (PFA) overnight. Mucus load was assessed by histological sections with Alcian Blue/Periodic Acid Schiff (AB/PAS) stainings and were performed by the GSK PTS histological core facility. […]

[4] = tested on: ALI cultured COPD BECs infected with HRV16; experiment: Protein secretion of immune mediators in supernatants of ALI cultured COPD BECs (MSD/ELISA); format: cell-based, human; conditions: 72 h post HRV16 infection
Text: as §1, §4
Detection of secreted proteins was done on the Meso Scale Discovery (MSD®) platform according to the manufacturer's protocol. Chemokines CXCL6 and CCL5 were detected by enzyme linked immunosorbent assay (ELISA) kits both bought from R&D systems, Cat. Nos. DY333 and DRN00B, respectively. […] Analytical flow cytometry was performed using the FACSCanto II (Beckton Dickinson) and analysed using FlowJo software (Tree Star, Inc. Ashland, US).

healthy neutrophil = experiment: Neutrophil chemotaxis in response to supernatants from HRV16 infected COPD BECs; format: cell-based; conditions: supernatants of COPD BECs 72 h post HRV16 infection, versus untreated infected samples
T-cell = T-cell chemotaxis in response to supernatants from HRV16 infected COPD BECs; format: cell-based; conditions: supernatants of COPD BECs 72 h post HRV16 infection
[5] = tested on: female Balb/c mice following HRV1B inoculation; experiment: Inflammation and mucus gene expression in lungs of mice following HRV1B inoculation; format: in vivo; conditions: 8 h post infection, 0.5 mg/kg
Procedure: For in-vivo experiments, 8 weeks old female BALB/c mice were intra-nasally infected with 1×10^8 plaque forming units (PFUs) of human rhinovirus serotype 1b (HRV1b) virus in a total of 50 μl and either treated or not with a γ-secretase inhibitor CompB N2-[(2S)-2-(3,5-difluorophenyl)-2-hydroxyethanoyl]-N1-[(7S)-5-methyl-6-oxo-6,7-dihydro-5H-dibenzo[b,d]azepin-7-yl]-L-alaninamide at a concentration of 0.5 mg/kg. To assess inflammation to the lung, broncho-alveolar lavage fluid (BALF) was collected and cellular infiltrates analysed on the Sysmex cell analysis system (Milton Keynes, UK). Subsequently, whole lung was placed into 1 ml of TRIZOL™ reagent for downstream gene expression analysis.
as §3, with “BP151).” for “BP151). The aqueous phase was then mixed with 70% ethanol and final RNA extraction was achieved using the Promega Total RNA Isolation System with automation.”

[6] = healthy and COPD human BECs at ALI

SMILES | cilia associated genes (expression) [1] | interferon response [1] | upregulation of goblet cell associated genes [1] | gene expression of T-cell associated chemokines [2] | gene expression of neutrophilic chemokines [2] | ciliation ([3]; COPD BECs, 72 h, ciliated cell genes and β-tubulin IV staining) | mucus production ([3]; COPD BECs, 72 h, goblet cell genes and AB/PAS staining) | loss of ciliation [3, 6] | mucus secretion [3, 6] | secretion of T-cell associated chemokines [4] | secretion of neutrophilic chemokines [4] | neutrophil chemotaxis (healthy neutrophil) | T-cell chemotaxis (T-cell) | mucin gene expression (Muc5ac) in lungs [5] | recruitment of neutrophils into the lungs (BAL) [5]
C[C@H](NC(=O)Cc1cc(F)cc(F)c1)C(=O)N[C@H]1N=C(c2ccccc2)c2ccccc2N(C)C1=O [CompA, (S)-2-[2-(3,5-difluorophenyl)-acetylamino]-N—((S)-1-methyl-2-oxo-5-phenyl-2,3-dihydro-1H-benzo[e][1,4]diazepin-3-yl)-propionamide] | restores cilia associated genes | left unaltered | inhibits upregulation of goblet cell associated genes | less affected | transcriptional inhibition | restores ciliation | inhibits mucus production | prevents the loss of ciliation | reduces mucus secretion | less affected | reduced secretion | reduced | unaltered | – | –
C[C@H](NC(=O)[C@@H](O)c1cc(F)cc(F)c1)C(=O)N[C@@H]1C(=O)N(C)c2ccccc2-c2ccccc21 [CompB, N2-[(2S)-2-(3,5-difluorophenyl)-2-hydroxyethanoyl]-N1-[(7S)-5-methyl-6-oxo-6,7-dihydro-5H-dibenzo[b,d]azepin-7-yl]-L-alaninamide] | – | – | – | – | – | – | – | – | – | – | – | – | – | reduced | reduced
